Assay [1] deals with T1, Dihydrofolate reductase (Lactobacillus casei, UniProt P00381). Nature of the assay: Inhibition constant of compound against Lactobacillus casei Dihydrofolate reductase. Also on record: species or system Lacticaseibacillus casei.
In assay [2] the target is Dihydrofolate reductase (Lactobacillus casei) (UniProt P00381). To be noted: Lacticaseibacillus casei.
Description: Tested for pK value of histidine residue(His-28) of Dihydrofolate reductase from Lactobacillus casei
The target in assay [3] is T1, Dihydrofolate reductase. Nature of the assay: Inhibition constant of compound against Lactobacillus casei dihydrofolate reductase. On the set-up: species or system Lacticaseibacillus casei.
The target in assay [4] is Dihydrofolate reductase (Lactobacillus casei) (UniProt P00381). Put plainly: Tested for pK value of histidine residue(His-28) of dihydrofolate reductase from Lactobacillus casei. To be noted: Lacticaseibacillus casei. It is filed as functional.

These results are taken from ChEMBL document CHEMBL1122542, “A 1H NMR study of the interactions and conformations of rationally designed brodimoprim analogues in complexes with Lactobacillus casei dihydrofolate reductase” (J Med Chem, 1984).

Dihydrofolate reductase (Lactobacillus casei), sequence (P00381 whole entry): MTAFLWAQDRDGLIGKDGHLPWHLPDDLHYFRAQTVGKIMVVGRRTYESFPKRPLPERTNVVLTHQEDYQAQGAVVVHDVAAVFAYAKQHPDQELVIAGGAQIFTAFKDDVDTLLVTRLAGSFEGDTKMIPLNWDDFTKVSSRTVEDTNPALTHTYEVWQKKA
T1 sequence (P00381 whole entry): as above

As to `COc1cc(Cc2cnc(N)nc2N)cc(OCCCC(=O)O)c1Br`, the affinity at Dihydrofolate reductase [1], expressed as Ki, was 0.9 nM.
With `COc1cc(Cc2cnc(N)nc2N)cc(OCCC(=O)NCC(=O)O)c1Br`, on Dihydrofolate reductase [1], the Ki – broadly, the equilibrium dissociation constant of an inhibitor or competing ligand from its target – worked out at 4.1 nM. In assay [2], this compound registered a pK of 6.71.
For `COc1cc(Cc2cnc(N)nc2N)cc(OCCCCCCC(=O)O)c1Br` the same measures were 0.6 nM and 6.8.
Compound `COc1cc(Cc2cnc(N)nc2N)cc(OCCCNCCC(=O)O)c1Br` returned a Ki on Dihydrofolate reductase [3] of 5.3 nM. This compound displayed a pK in assay [4] of 6.71.
For `COc1cc(Cc2cnc(N)nc2N)cc(OC)c1Br` [BRODIMOPRIM], the affinity at Dihydrofolate reductase [3], expressed as Ki, was 11.3 nM. The pK in assay [4] was determined as 6.8.
In the case of `COc1cc(Cc2cnc(N)nc2N)cc(OCCC(=O)NC(CCC(=O)O)C(=O)O)c1Br` (stereo unspecified), the Ki at Dihydrofolate reductase [1] was 1.7 nM. Also, in assay [2], the pK is 7.12.
For the compound `COc1cc(Cc2cnc(N)nc2N)cc(OCCCC(CCC(=O)O)C(=O)O)c1Br` (stereo unspecified), the inhibition constant (Ki) on Dihydrofolate reductase [1] was under 0.01 nM. Further, the pK in assay [2] came to 7.8.
`COc1cc(Cc2cnc(N)nc2N)cc(OCCCCCC(=O)O)c1Br` showed a Ki on Dihydrofolate reductase [1] of 0.4 nM.
`COc1cc(Cc2cnc(N)nc2N)cc(OCCCCC(=O)O)c1Br`: the Ki on Dihydrofolate reductase [1] was 0.2 nM. The compound further came in with a pK in assay [2] of 6.83.
